Test results reported in patent US12503448B2, “Antibacterial and antiparasitic quinoxaline-2,3-diamine derivatives” (University College Cardiff Consultants Limited, priority 2019, dated 2025).
Converted amounts (≈) assume the structure as drawn. Like-named read-outs stand apart in the source and are kept apart here.

Tests used:
[1] = test system: S. mansoni schistosomula; experiment: 72 hours schistosomula drug screen; type: cell-based, Schistosoma mansoni; settings: for Selectivity Index Schistosomula: HepG2 CC50 over schistosomula EC50; for EC50: Schistosoma mansoni
Method: Biological Screening 72 Hours Schistosomula Drug Screen […] G. Colley, […], Schistosoma mansoni: simplified method for the production of schistosomules., Exp. Parasitol. 35 (1974) 44-51. Newly transformed schistosomula were prepared for 72 hour high throughput screening (HTS) in 384-well black-sided microtiter plates (Perkin Elmer, MA, USA) as described in M. Nur-e-alam, M. Yousaf, […]. Bari, H. A. Ghabbour, […]. Ho, A. J. […], Neoclerodane Diterpenoids from […], Teucrium […]. Nat. […] The data obtained in this manner is shown in Table 1 in the columns labelled “Phenotype”, “Motility” and “Schistosomula average”.

[2] = test system: S. mansoni adult worms; experiment: Adult worm drug screen (WHO scoring, WormassayGP2); type: cell-based, Schistosoma mansoni; settings: for Selectivity Index Adult: HepG2 CC50 over adult worm EC50; for EC50: Schistosoma mansoni, adult worms
Excerpt: Mice (MF-1 mice, Harlan, UK), infected 7 weeks previously with 180 cercaria, were euthanised with an intraperitoneal injection of phenobarbital/heparin solution. Adult worms were recovered by perfusion of the portal system and subjected to drug screening as previously described in Padalino G, Ferla S, Brancale A, Chalmers I W, Hoffmann K F. Int J Parasitol Drugs Drug Resist. 2018 December; 8(3):559-570; in Whiteland H L, Chakroborty A, Forde-Thomas J E, Crusco A, Cookson A, Hollinshead J, Fenn C A, Bartholomew B, Holdsworth P A, Fisher M, Nash R J, Hoffmann K F. Int J Parasitol Drugs Drug Resist. 2018 December; 8(3):465-474; and in Crusco A, Bordoni C, Chakroborty A, Whatley K C L, Whiteland H, Westwell A D, Hoffmann K F. Eur J Med Chem. 2018 May 25; 152:87-100. The data obtained in this manner is shown in Table 1 in the columns labelled “Adult worm”.
Regarding the quantification of drug treatment on adult worms (e.g. decreased activity, paralysis or sluggishness), two different approaches were used, as described below. Where egg deposition was noticed, eggs were removed and counted using a Sedgewick rafter slide.
Adult worms were scored using the standardized microscopic WHO-TDR scoring system previously described by Ramirez, B., Bickle, Q., Yousif, F., Fakorede, F., Mouries, M.-A., Nwaka, S. in Schistosomes: Challenges in compound screening, Expert Opin Drug Discov. 2007 October; 2(s1): S53-61. This scoring system (0-4) identifies changes in worm movement and is defined according to the following scoring matrix: 0=no movement, 1=no movement with visible gut peristalsis, 2=minimal movement (occasional movement from anterior or posterior end of the worm), 3=slow continuous movement and 4=normal movement.
A digital image processing-based system was also used to assess parasite motility after drug treatment and is a modification of methods previously described by Marcellino C., Gut, J., Lim, K., Singh R., McKerrow, L. and Sakanari, J. WormAssay: a novel computer application for whole-plate motion-based screening of macroscopic parasites. PLoS Negl Trop Dis. 2012 January:6(1):e1494. This allowed for objective verification of the WHO method described above. The data obtained with this quantification method is shown in Table 1 in the columns labelled “Adult worm”.

[3] = test system: F. hepatica newly excysted juveniles (NEJs); experiment: Newly excysted juveniles (NEJs) drug screen; type: cell-based, Fasciola hepatica; design: scale not given here; settings: 10 μM, 72 h; higher score indicates lower worm activity
Method: Newly Excysted Juveniles (NEJs) Drug Screen
F. hepatica (Italian strain) metacercariae were obtained from Ridgeway Research, Gloucestershire, UK and stored at 4° C. Newly excysted juveniles (NEJs) from metacercariae were produced based on an optimisation introduced to the excystment method published by Dixon et al. and Wilson et al (Dixon, K. E., The physiology of excystment of the metacercaria of Fasciola hepática L. Parasitology, 1966, 56, 431-456.; Wilson, L. R., Good, R. T., Panaccio, M., Wijffels, G. L., Sandeman, R. M., Spithill, T. W, Fasciola hepatica: Characterization and Cloning of the Major Cathepsin B Protease Secreted by Newly Excysted Juvenile Liver Fluke. Experimental Parasitology 1998, 88, 85-94).
After excystment, NEJs were distributed into a 24 well tissue culture plate at a density of 25 parasites per well containing 1 mL of pre-warmed NEJs culture media. Compounds were added to respective wells and NEJ/compound co-cultures were incubated at 37° C. in an atmosphere containing 5% CO2 for 72 hours at a final concentration of 10 μM.
F. hepatica NEJs (25 per well) were incubated with the three compounds at a concentration of 10 μM (in 0.1% DMSO) and cultured for 72 hrs at 37° C. in an atmosphere containing 5% CO2. Control wells (25 NEJs per well) included those containing 0.1% DMSO (solvent) and RMPI (media) as negative controls or 10 μM Triclabendazole (0.1% DMSO, as positive control, labelled “Tbz” (Comp. 3). After 72 hrs, all NEJs were scored for phenotype and motility metrics. For each treatment, an average of both phenotype and motility score was calculated based on the individual parasite scores (across two independent replicates), wherein a higher score indicates lower worm activity. SD is reported on the bar chart.

[4] = test system: E. coli ATCC 25922; experiment: In vitro antibacterial activity; type: cell-based; settings: Escherichia coli, ATCC25922
[5] = test system: S. aureus ATCC 29213; experiment: In vitro antibacterial activity; type: cell-based; settings: Staphylococcus aureus, ATCC29213
[6] = test system: M. smegmatis mc^2 15 ATCC 700084; experiment: In vitro antibacterial activity; type: cell-based, Mycobacterium smegmatis; settings: Mycolicibacterium smegmatis, ATCC700084
[7] = test system: Pseudomonas aeruginosa ATCC 27853; experiment: In vitro antibacterial activity; type: cell-based; settings: ATCC27853
[8] = test system: S. epidermidis NTCT11077; experiment: In vitro antibacterial activity; type: cell-based; settings: Staphylococcus epidermidis
[9] = test system: B. cereus; experiment: In vitro antibacterial activity; type: cell-based; settings: Bacillus cereus
[10] = Mouse pharmacokinetics, oral cassette dosing; settings: male, C57/BL6, mouse, plasma, po, 2.5 mg/kg
Method: Non-compartmental mouse pharmacokinetics (Male C57/BL6 Mouse, Fasted; 3 mice per group) were determined after oral administration of a nominal dose of 2.5 mg/kg of these formulations in cassettes (5 compounds/group) according to the protocols employed by WuXi (https://www.wuxiapptec.com; the CRO that conducted these studies).

[11] = Semi thermodynamic solubility; settings: thermodynamic from solid
[12] = Metabolic stability in mouse liver microsomes; settings: liver microsomes
[13] = test system: MRSA USA 300; experiment: In vitro antibacterial activity; type: cell-based; settings: Staphylococcus aureus
[14] = test system: MRSA ATCC 33591; experiment: In vitro antibacterial activity; type: cell-based; settings: Staphylococcus aureus
[15] = test system: MRSA EM RSA; experiment: In vitro antibacterial activity; type: cell-based; settings: Staphylococcus aureus
Excerpt: In vitro Determination of Antibacterial Activity
Scientific Reports 8 (1), 2018. Bacterial strains of Enterococcus faecalis—ATCC 29212, NCTC 12201, ATCC 51299; Streptococcus pneumoniae—ATCC 49619, 18778, 21394, 21395; Haemophilus influenza—ATCC 49766, 18391, 17428; Staphylococcus aureus—NCTC 12493, ATCC BAA-077, ATCC 700698, 11051; used for testing the compounds, as previously described in “Clinical laboratory testing and in vitro diagnostics test systems—Susceptibility testing of infectious agents and evaluation of performance of antimicrobial susceptibility devices—Part 1: Reference methods for testing the in vitro activity of antimicrobial agentes against bacteria involved in infectious diseases, ISO/FDIS 20776-1:2006(E). All the procedures were carried out in a biosafety containment level 2.

[16] = schistosomula, 72 hour culture, read-out: EC50 Motility
[17] = schistosomula, 72 hour culture, read-out: EC50 Phenotype
[18] = average of phenotype and motility, read-out: EC50 Schistosomula average
[19] = E. coli ATCC 25922, read-out: MIC90
[20] = M. smegmatis mc^2 15 ATCC 700084, read-out: MIC90

Row | SMILES | Selectivity Index Schistosomula [1] | EC50 [1, 16] [nM] | EC50 [1, 17] [nM] | Selectivity Index Adult [2] | EC50 [2] [nM] | Motility (M) Mean score [3] | Phenotype (P) Mean score [3] | MIC90 [4] [µg/mL] | MIC90 [5] [µg/mL] | MIC90 [6] [µg/mL] | MIC90 ([7]; Pseudomonas aeruginosa) [µg/mL] | MIC90 ([8]; NTCT11077) [µg/mL] | MIC90 [9] [µg/mL] | EC50 [1, 18] [nM] | further results
1 | CCCCCC(=O)Nc1ccc2nc(Nc3ccc(Cl)c(Cl)c3)c(Nc3ccc(Cl)c(Cl)c3)nc2c1 [Compound 18, N-(2,3-bis((3,4-dichlorophenyl)amino)quinoxalin-6-yl)hexanamide] | 46 | 1800 | 1020 | 203 | 320 | 4.05 | 4.09 | > 125 | 62.5 (≈ 111 µM) | > 125 | > 125 | > 125 | 125 (≈ 222 µM) | – | AUC(0-t) [10]: 68.2 ng·h/mL; Cmax [10]: 16.4 ng/mL; MRT last [10]: 3.86 h; Tmax [10]: 4 h; solubility thermodynamic [11]: 15.5 µM (≈ 8.73 µg/mL); half-life at 1 μM [12]: 0.618 h; microsomal CLint at 1 μM [12]: 37.4 µL/min/mg
2 | Clc1ccc(Nc2nc3ccc(N4CCCC4)cc3nc2Nc2ccc(Cl)c(Cl)c2)cc1Cl [Compound 16, N^2, N^3-bis(3,4-dichlorophenyl)-6-(pyrrolidin-1-yl)quinoxaline-2,3-diamine] | – | > 10000 | > 10000 | – | – | 2.84 | 2.95 | > 125 | 15.6 (≈ 30.1 µM) | > 125 | > 125 | > 125 | > 125 | – | MIC90 [13]: 62.5 µg/mL (≈ 120 µM); MIC90 [14]: 31.2 µg/mL (≈ 60.2 µM); MIC90 [15]: 62.5 µg/mL (≈ 120 µM)
3 | CSc1nc2cc(Cl)c(Oc3cccc(Cl)c3Cl)cc2[nH]1 [Comp. 3, triclabendazole, reference compound] | – | – | – | – | – | 4.72 | 4.72 | – | – | – | – | – | – | – | –
4 | Nc1ccc2nc(Nc3ccc(Cl)c(Cl)c3)c(Nc3ccc(Cl)c(Cl)c3)nc2c1 [Compound 15, N^2, N^3-bis(3,4-dichlorophenyl)quinoxaline-2,3,6-triamine] | 7 | 3250 | 3510 | – | – | 4.86 | 5.09 | – | – | – | – | – | – | – | –
5 | O=[N+]([O-])c1ccc2nc(NCc3ccccc3)c(NCc3ccccc3)nc2c1 [Compound 13, N^2, N^3-dibenzyl-6-nitroquinoxaline-2,3-diamine] | 4 | 2640 | 3190 | – | – | 3.14 | 3.14 | > 125 | > 125 | > 125 | – | – | – | 2920 | –
6 | COC(=O)C1=C(C)NC(C)=C(C(=O)OCCN(C)Cc2ccccc2)C1c1cccc([N+](=O)[O-])c1 (stereo not shown) [Nicardipine, reference compound] | – | – | – | – | – | – | – | – | – | – | – | – | – | – | solubility thermodynamic [11]: 35.4 µM (≈ 17 µg/mL)
7 | CC(=O)Nc1ccc2nc(Nc3ccc(Cl)c(Cl)c3)c(Nc3ccc(Cl)c(Cl)c3)nc2c1 [Compound 17, N-(2,3-bis((3,4-dichlorophenyl)amino)quinoxalin-6-yl)acetamide] | 4 | 2090 | 2600 | 12 | 700 | – | – | > 125 | 62.5 (≈ 123 µM) | > 125 | > 125 | < 62.5 | < 62.5 | 2350 | –
8 | O=[N+]([O-])c1ccc2nc(Nc3cccc(C(F)(F)F)c3)c(Nc3cccc(C(F)(F)F)c3)nc2c1 [Compound 10, 6-nitro-N^2, N^3-bis(3-(trifluoromethyl)phenyl)quinoxaline-2,3-diamine] | 12 | 570 | – | 836 | 7 | 2.71 | 2.76 | – | 7.81 (≈ 15.8 µM) | – | – | – | – | 480 | MIC90 [4, 19]: > 125 µg/mL; MIC90 [6, 20]: > 125 µg/mL; MIC90 [13]: > 125 µg/mL; MIC90 [14]: > 125 µg/mL; MIC90 [15]: > 125 µg/mL; MIC90 ([7]; Pseudomonas aeruginosa ATCC 27853, read-out: MIC90): > 125 µg/mL; MIC90 ([8]; S. epidermidis NTCT11077, read-out: MIC90): > 125 µg/mL; MIC90 ([9]; B. cereus, read-out: MIC90): > 125 µg/mL
9 | O=[N+]([O-])c1ccc2nc(NCCc3ccccc3)c(NCCc3ccccc3)nc2c1 [Compound 14, 6-nitro-N^2, N^3-diphenethylquinoxaline-2,3-diamine] | – | 1470 | 2200 | – | – | 4.00 | 4.27 | – | – | – | – | – | – | – | MIC90 [4, 19]: > 125 µg/mL; MIC90 ([5]; S. aureus ATCC 29213, read-out: MIC90): > 125 µg/mL; MIC90 [6, 20]: 31.2 µg/mL (≈ 75.6 µM)
